In BindingDB's records for doi:10.1021/jm800200u (Mgi Pharma, 2008):

Target: D-amino-acid oxidase (Sus scrofa, UniProt P00371)
Experiment: In vitro D-Amino Acid Oxidase Assay
Conditions: pH 8.5; 22 °C
Protocol: D-amino acid oxidase (DAAO) was assayed in a 96-well plate format. D-serine was oxidatively deaminated by porcine D-amino acid oxidase in the presence of molecular oxygen and flavin […] dinucleotide (FAD) to yield the corresponding alpha-keto acid, ammonia and hydrogen peroxide.

D-amino-acid oxidase, sequence (P00371 whole entry): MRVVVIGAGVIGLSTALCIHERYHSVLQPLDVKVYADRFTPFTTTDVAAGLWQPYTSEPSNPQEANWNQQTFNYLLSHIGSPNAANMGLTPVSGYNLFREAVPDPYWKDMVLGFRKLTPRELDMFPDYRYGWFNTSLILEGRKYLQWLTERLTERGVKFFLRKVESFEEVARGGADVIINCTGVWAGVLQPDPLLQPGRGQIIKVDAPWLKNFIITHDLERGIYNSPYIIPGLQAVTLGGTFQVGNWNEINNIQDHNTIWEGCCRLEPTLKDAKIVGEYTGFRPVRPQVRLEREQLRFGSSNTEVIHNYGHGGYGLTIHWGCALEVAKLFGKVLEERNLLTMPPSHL

- IC50: > 100 µM
SMILES: O=c1[nH]oc2c1CCCC2 [4,5,6,7-tetrahydrobenzo[d]isoxazol-3-ol]
